{
  "source": "patent US5670618A",
  "about": "“Insulin-like peptide” (The State University of New Jersey, priority 1995, dated 1997)",
  "key": {"[1]": {"system": "cell wall-less strain of Neurospora", "conditions": "cited from earlier work"}, "[2]": {"system": "Tetrahymena pyriformis", "conditions": "cited from earlier work"}, "[3]": {"biological_target": "T1, membrane-associated adenylate cyclase from Neurospora crassa (Neurospora crassa, UniProt Q01631)", "T1 construct": "host or cells: Neurospora crassa membranes", "T1 sequence (Q01631 whole entry)": "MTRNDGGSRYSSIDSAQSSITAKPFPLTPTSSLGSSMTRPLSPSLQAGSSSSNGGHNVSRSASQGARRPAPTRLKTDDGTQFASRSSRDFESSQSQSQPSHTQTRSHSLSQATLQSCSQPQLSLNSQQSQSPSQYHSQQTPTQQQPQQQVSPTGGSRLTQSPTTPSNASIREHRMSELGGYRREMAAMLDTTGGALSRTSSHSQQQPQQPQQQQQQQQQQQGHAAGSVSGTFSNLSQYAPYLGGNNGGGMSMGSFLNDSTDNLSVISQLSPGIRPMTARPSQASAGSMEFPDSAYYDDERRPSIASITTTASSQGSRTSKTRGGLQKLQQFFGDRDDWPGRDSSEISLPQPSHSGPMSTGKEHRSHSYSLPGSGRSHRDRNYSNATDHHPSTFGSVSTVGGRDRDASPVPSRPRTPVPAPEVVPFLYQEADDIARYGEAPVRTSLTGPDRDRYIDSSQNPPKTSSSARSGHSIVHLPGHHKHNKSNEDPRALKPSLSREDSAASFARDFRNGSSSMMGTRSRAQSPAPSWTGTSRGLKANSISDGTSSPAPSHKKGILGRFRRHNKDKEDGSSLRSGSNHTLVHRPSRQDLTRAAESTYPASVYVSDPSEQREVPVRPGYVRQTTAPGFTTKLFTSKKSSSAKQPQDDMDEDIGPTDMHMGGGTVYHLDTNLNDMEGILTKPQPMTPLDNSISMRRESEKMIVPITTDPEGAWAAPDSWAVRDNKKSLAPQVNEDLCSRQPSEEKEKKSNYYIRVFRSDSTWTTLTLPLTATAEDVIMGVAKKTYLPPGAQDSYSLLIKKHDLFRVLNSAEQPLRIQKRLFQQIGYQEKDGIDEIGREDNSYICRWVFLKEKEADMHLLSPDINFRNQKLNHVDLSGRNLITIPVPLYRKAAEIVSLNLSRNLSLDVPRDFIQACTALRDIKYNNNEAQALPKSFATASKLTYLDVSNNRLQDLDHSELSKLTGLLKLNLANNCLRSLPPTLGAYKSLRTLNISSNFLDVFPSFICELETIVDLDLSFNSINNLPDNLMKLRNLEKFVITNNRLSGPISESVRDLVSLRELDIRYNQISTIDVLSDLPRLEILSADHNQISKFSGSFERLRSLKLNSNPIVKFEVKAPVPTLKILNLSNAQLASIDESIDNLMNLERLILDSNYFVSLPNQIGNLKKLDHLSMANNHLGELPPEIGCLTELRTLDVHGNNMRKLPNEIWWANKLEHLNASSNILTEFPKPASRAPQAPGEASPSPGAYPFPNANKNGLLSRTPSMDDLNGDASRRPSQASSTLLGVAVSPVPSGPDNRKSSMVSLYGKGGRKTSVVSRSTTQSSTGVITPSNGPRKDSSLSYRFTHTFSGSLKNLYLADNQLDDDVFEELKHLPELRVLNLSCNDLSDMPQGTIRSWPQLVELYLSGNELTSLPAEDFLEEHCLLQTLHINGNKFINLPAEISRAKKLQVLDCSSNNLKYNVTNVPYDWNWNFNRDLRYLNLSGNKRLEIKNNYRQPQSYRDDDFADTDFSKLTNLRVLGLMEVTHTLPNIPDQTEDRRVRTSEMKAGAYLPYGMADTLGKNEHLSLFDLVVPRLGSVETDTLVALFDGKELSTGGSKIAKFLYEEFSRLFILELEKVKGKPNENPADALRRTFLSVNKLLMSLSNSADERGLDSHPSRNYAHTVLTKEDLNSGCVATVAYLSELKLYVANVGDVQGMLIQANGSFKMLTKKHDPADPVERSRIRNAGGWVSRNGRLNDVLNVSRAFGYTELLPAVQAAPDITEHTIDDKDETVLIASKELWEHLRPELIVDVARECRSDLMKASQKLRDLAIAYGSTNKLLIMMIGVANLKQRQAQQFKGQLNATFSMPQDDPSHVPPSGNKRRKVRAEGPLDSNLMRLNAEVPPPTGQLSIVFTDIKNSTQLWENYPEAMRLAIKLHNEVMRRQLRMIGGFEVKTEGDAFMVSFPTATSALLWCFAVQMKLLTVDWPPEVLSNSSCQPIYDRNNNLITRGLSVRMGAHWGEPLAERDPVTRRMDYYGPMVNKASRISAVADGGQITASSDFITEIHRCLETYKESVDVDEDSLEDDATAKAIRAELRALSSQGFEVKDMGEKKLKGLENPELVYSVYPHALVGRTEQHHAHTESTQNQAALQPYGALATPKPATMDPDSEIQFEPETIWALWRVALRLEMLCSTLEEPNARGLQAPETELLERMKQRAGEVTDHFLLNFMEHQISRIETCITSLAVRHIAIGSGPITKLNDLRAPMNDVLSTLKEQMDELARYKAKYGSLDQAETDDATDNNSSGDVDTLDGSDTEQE", "conditions": "insulin at low doses (10^-9 M); cited from earlier work"}, "[4]": {"system": "solubilized and wheat germ column purified plasma membrane preparations", "experiment": "binding to solubilized and wheat germ column purified plasma membrane preparations", "set-up": "species or system S. cerevisiae", "conditions": "wheat germ column purified membranes, comparable conditions"}, "[5]": {"biological_target": "isolated plasma membranes (high affinity binding sites for insulin and IGF-I)", "experiment": "binding assays with isolated plasma membranes", "set-up": "species or system S. cerevisiae"}, "[6]": {"system": "cell wall-less strain of Neurospora", "conditions": "added to nutritionally rich, chemically defined culture medium; cited from earlier work"}, "[7]": {"system": "insulin receptor-like protein in yeast", "experiment": "autophosphorylation of insulin receptor-like protein in yeast", "assay_type": "cell-based"}, "[8]": {"system": "stationary phase cells (yeast)", "experiment": "stimulation of glycogen synthesis in yeast (14C-glucose incorporation)", "assay_type": "cell-based", "conditions": "binding to insulin-related receptor on yeast cell, under proper conditions", "description": "To assay the effect of ScILP on glycogen synthesis, stationary phase cells are preincubated in phosphate buffer with various doses of ScILP (or a variant thereof). After 30 min of incubation in the presence of 1% glucose and uniformly labelled ^14 C-glucose, the cells are pelleted, resuspended in sodium carbonate, neutralized with HCl and treated with α-amylase to release the glucose incorporated into the newly synthesized glycogen. The enzymatically released glucose is collected and quantitated by scintillation counting."}, "[9]": {"system": "intact yeast cells", "experiment": "porcine 125I-insulin binding and displacement, intact yeast cells", "set-up": "species or system S. cerevisiae", "description": "Insulin binding studies with intact logarithmic and stationary phase yeast cells were performed under typical conditions for mammalian cells (25,26). In logarithmic phase yeast, porcine ^125 I-insulin binding had reached apparent equilibrium by 1-2 h and represented ca. 0.5% of the total counts specifically bound (FIG. 2a). At this time, greater than 95% of the labelled insulin appeared to be intact, as judged by TCA precipitable counts. Unlabelled porcine insulin displaced labelled insulin from intact yeast cells in a dose dependent fashion with 50% bound occurring around 10^-9 M (FIG. 2b). This value is in good agreement with the value obtained for displacement of insulin from mammalian cells."}},
  "data": [
    {"substance": "bovine insulin", "values": [
      {"measurement": "increase of 14C-labelled glucose incorporation into glycogen", "setting": "[1]; 30 min treatment, 100 nM", "result": 41, "unit": "%"},
      {"measurement": "more glycogen than control cells", "setting": "[1]; cells grown in presence of 100 nM insulin", "result": 40, "unit": "%"},
      {"measurement": "intracellular levels of UDPG-glucose by 31P-NMR", "setting": "[1]", "result": "increase"},
      {"measurement": "effect on glucose uptake", "setting": "[2]", "result": "small effect"},
      {"measurement": "effect on adenylate cyclase specific activity", "setting": "[3]", "result": "significantly inhibit"}
    ]},
    {"substance": "glucagon", "values": [
      {"measurement": "effect on adenylate cyclase specific activity", "setting": "[3]", "result": "stimulated adenylate cyclase activity"}
    ]},
    {"substance": "insulin", "values": [
      {"measurement": "specific binding (of 4-5% total binding)", "setting": "[4]", "result": "1-2%"},
      {"measurement": "Kd", "setting": "[5]", "result": 0.7, "unit": "nM"}
    ]},
    {"substance": "insulin-like growth factor (IGF-I)", "values": [
      {"measurement": "specific binding (of 4-5% total binding)", "setting": "[4]", "result": "1-2%"}
    ]},
    {"substance": "mammalian insulin", "values": [
      {"measurement": "influence on growth, morphology and viability", "setting": "[6]", "result": "distinctively different morphology, enhanced growth, and extension of viability at the stationary phase in culture"},
      {"measurement": "autophosphorylation of insulin receptor-like protein on tyrosine residues", "setting": "[7]", "result": "results in its autophosphorylation on tyrosine residues"},
      {"measurement": "effect on glycogen synthesis", "setting": "[8]", "result": "stimulates glycogen synthesis"}
    ]},
    {"substance": "porcine insulin", "values": [
      {"measurement": "labelled insulin intact, judged by TCA precipitable counts", "setting": "[9]; at apparent equilibrium of binding (1-2 h)", "result": "greater than 95%"},
      {"measurement": "IC50", "setting": "[9]; intact yeast cells, dose dependent displacement, read-out: concentration of unlabelled insulin at 50% bound (displacement of labelled insulin)", "result": "~1", "unit": "nM"},
      {"measurement": "time to apparent binding equilibrium", "setting": "[9]; logarithmic phase yeast", "result": "1 to 2", "unit": "h"},
      {"measurement": "total counts specifically bound", "setting": "[9]; logarithmic phase yeast, at apparent equilibrium", "result": "ca. 0.5%"}
    ]},
    {"substance": "proinsulin", "values": [
      {"measurement": "influence on growth, morphology and viability", "setting": "[6]", "result": "inactive"}
    ]},
    {"substance": "reduced insulin", "values": [
      {"measurement": "influence on growth, morphology and viability", "setting": "[6]", "result": "inactive"}
    ]}
  ]
}
